Results taken from ChEMBL document CHEMBL5465560, “Selectivity Literature for EUbOPEN Chemogenomic Library” (2024).

Experiments:
[1] = target: Cyclin-dependent kinase 18 (Homo sapiens) (UniProt Q07002); assay: Selectivity interaction (KinomeScan (DiscoverX)) EUB0000666a CDK18; details: at 10 µM
[2] = target: T1, Tyrosine-protein kinase ITK/TSK (Homo sapiens) (UniProt Q08881); assay: Selectivity interaction (KinomeScan (DiscoverX)) EUB0000229b ITK; details: at 10 µM
T1 sequence (whole entry): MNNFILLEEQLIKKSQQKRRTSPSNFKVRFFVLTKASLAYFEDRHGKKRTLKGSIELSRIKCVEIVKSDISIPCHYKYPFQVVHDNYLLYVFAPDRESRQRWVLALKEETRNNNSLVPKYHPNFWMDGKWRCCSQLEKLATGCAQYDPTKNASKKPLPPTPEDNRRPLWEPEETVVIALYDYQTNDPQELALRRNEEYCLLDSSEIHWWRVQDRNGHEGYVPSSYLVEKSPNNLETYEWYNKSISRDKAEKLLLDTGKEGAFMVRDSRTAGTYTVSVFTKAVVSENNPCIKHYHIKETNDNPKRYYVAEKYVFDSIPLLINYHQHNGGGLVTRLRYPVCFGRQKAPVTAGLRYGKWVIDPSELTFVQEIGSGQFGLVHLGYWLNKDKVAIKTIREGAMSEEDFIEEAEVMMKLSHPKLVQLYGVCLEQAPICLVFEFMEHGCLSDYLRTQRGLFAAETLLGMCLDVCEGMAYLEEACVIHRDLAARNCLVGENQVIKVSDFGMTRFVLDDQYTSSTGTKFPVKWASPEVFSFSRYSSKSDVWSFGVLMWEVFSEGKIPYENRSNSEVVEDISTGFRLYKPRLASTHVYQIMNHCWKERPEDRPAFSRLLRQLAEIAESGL

[3] = target: T2, Cytoplasmic tyrosine-protein kinase BMX (Homo sapiens) (UniProt P51813); assay: Selectivity interaction (KinomeScan (DiscoverX)) EUB0000229b BMX; details: at 10 µM
T2 sequence (whole entry): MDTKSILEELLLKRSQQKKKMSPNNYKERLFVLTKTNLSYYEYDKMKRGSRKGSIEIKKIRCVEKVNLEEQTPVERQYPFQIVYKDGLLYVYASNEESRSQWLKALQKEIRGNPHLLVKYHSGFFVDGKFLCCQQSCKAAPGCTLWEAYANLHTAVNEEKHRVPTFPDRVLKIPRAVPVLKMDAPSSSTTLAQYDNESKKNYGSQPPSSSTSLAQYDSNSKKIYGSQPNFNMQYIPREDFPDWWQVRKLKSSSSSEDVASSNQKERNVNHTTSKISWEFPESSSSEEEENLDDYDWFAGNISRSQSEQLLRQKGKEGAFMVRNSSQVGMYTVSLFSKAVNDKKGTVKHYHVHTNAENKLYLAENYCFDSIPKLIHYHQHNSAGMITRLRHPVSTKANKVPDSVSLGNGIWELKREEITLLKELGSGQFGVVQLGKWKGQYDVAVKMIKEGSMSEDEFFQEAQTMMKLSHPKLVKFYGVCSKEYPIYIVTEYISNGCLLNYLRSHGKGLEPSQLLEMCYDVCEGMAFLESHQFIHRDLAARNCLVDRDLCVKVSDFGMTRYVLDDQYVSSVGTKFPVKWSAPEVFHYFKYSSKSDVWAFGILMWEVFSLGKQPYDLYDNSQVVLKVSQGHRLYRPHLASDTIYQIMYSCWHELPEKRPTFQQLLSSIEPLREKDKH

[4] = target: Serine/threonine-protein kinase Chk2 (Homo sapiens) (UniProt O96017); assay: Selectivity interaction (Kinase panel (DSF assay)) EUB0001559a CHEK2
[5] = target: Polycystin-1 (Homo sapiens) (UniProt P98161); assay: Selectivity interaction (ActivX KiNativ screen (kinase selectivity in THP-1 cell lysates)) EUB0000639a PKD1; type: subcellular; details: lysate
Chain of Polycystin-1 (Homo sapiens) (P98161 24-4303 limits assumed): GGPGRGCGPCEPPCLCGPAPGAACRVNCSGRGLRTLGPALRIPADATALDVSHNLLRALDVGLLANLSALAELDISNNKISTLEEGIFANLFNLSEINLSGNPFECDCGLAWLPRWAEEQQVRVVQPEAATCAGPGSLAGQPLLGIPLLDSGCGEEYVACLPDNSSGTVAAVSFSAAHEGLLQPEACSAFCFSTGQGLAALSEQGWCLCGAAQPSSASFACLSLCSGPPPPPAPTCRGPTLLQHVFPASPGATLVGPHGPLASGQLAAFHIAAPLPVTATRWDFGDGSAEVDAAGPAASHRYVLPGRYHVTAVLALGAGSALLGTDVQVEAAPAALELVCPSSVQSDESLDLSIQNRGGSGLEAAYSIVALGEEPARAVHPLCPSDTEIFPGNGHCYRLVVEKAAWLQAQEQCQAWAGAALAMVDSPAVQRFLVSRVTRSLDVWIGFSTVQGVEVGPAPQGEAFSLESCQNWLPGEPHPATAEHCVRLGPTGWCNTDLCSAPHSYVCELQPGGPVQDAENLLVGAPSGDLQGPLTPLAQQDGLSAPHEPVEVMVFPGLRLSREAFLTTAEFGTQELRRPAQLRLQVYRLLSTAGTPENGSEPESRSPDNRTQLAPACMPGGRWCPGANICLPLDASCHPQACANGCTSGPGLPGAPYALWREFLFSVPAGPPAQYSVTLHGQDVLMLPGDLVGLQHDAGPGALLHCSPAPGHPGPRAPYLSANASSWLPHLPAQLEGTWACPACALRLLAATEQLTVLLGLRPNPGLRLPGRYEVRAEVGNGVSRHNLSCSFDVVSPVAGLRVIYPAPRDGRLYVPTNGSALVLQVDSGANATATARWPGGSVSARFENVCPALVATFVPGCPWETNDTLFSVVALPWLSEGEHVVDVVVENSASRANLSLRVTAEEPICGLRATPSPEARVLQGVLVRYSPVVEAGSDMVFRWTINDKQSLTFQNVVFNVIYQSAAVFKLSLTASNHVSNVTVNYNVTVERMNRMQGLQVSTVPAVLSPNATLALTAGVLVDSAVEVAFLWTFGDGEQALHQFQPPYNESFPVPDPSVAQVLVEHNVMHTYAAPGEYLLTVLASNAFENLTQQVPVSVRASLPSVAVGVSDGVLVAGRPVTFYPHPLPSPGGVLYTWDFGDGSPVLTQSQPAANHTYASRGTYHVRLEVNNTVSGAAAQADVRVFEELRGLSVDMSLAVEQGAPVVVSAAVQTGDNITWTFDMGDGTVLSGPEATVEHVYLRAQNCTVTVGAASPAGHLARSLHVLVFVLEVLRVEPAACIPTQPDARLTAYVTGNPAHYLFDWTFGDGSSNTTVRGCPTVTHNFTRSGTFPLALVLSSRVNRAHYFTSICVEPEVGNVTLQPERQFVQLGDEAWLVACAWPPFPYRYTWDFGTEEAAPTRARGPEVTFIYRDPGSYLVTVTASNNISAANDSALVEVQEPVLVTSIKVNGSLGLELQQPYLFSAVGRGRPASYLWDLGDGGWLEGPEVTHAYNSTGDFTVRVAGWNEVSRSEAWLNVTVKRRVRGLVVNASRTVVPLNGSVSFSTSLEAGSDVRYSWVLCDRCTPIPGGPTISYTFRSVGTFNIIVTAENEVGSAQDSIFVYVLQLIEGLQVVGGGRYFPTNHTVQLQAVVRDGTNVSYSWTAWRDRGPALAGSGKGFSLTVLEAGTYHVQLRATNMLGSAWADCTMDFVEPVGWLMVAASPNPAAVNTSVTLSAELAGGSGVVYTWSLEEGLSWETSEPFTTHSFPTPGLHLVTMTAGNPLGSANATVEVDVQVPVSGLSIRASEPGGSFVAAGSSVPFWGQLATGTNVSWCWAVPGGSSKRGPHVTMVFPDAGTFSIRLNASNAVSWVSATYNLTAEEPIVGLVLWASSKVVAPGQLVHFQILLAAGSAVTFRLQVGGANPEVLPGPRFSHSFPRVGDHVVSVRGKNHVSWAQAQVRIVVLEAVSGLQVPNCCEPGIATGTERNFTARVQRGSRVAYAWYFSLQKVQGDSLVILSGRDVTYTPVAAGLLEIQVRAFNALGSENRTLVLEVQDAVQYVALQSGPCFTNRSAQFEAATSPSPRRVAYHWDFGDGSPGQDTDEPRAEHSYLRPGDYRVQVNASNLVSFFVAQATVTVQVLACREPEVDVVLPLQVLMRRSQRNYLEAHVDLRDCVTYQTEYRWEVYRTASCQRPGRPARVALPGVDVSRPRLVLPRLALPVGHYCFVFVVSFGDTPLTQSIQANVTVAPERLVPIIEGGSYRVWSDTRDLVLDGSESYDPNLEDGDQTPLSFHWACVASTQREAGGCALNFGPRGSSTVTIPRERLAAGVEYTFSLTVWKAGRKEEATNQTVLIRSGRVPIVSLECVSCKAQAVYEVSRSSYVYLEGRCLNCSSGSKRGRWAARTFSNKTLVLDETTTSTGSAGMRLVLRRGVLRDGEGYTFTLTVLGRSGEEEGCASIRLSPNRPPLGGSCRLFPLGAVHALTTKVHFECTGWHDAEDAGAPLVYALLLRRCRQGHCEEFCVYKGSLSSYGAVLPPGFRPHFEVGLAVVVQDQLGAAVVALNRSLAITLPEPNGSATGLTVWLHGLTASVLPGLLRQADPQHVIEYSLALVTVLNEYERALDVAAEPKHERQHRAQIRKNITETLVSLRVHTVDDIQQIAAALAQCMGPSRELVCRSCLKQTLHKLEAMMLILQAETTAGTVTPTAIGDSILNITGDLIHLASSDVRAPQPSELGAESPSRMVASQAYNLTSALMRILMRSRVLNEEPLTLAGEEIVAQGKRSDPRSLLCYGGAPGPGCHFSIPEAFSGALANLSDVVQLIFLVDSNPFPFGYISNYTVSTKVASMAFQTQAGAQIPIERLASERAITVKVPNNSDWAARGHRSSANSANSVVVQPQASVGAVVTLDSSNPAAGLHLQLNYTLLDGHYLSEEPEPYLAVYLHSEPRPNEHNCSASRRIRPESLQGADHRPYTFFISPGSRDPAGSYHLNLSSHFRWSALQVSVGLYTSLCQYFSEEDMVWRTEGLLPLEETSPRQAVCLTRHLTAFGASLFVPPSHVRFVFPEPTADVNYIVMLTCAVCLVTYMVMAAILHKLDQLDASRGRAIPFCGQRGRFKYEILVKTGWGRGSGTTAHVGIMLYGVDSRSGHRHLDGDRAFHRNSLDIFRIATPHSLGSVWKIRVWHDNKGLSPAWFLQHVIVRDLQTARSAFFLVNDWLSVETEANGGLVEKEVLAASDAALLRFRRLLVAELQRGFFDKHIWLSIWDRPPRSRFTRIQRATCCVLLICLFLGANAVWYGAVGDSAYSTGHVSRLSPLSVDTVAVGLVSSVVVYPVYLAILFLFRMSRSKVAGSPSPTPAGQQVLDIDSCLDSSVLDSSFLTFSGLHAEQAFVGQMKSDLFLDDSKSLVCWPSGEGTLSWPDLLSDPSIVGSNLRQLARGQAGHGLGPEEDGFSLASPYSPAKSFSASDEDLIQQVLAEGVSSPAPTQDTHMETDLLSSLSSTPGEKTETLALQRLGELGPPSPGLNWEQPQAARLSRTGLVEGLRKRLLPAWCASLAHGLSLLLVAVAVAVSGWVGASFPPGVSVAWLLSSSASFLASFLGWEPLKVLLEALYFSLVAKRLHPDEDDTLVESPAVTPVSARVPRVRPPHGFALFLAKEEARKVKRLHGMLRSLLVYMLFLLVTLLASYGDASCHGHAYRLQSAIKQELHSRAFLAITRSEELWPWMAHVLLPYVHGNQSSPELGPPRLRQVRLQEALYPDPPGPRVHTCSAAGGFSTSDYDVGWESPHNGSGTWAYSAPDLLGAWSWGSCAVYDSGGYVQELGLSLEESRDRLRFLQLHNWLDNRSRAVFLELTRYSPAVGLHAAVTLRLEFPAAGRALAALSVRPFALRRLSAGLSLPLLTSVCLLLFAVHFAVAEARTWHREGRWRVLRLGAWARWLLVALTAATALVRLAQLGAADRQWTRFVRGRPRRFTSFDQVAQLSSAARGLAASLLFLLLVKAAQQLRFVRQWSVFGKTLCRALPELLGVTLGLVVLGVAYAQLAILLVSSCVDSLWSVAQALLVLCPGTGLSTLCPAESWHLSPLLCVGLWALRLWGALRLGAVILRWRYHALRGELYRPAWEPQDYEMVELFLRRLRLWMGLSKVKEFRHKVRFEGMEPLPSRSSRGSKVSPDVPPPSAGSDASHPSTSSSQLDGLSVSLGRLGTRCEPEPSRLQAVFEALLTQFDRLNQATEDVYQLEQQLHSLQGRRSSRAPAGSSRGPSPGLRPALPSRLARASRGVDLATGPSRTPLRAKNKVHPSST

[6] = target: Calcium/calmodulin-dependent protein kinase type 1 (Homo sapiens) (UniProt Q14012); assay: Selectivity interaction (KinomeScan (DiscoverX)) EUB0000092b CAMK1; details: at 10 µM
Chain of Calcium/calmodulin-dependent protein kinase type 1 (Homo sapiens) (Q14012 whole entry, looked up): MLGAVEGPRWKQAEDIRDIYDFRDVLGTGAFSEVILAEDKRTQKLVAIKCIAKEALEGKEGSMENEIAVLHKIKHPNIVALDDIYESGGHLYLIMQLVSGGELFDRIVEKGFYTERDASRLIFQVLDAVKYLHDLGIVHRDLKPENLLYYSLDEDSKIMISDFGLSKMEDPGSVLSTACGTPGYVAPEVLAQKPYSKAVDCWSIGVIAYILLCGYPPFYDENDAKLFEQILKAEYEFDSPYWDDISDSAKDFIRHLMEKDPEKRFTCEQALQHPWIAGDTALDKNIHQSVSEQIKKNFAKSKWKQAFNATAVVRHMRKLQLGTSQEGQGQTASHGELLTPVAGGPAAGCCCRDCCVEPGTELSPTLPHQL

[7] = target: Cyclin-dependent kinase 2 (Homo sapiens, UniProt P24941); assay: Selectivity interaction (KinomeScan (DiscoverX)) EUB0000045b CDK2
[8] = target: T3, Muscle, skeletal receptor tyrosine-protein kinase (Homo sapiens) (UniProt O15146); assay: Selectivity interaction (KinomeScan (DiscoverX)) EUB0000607a MUSK; details: at 10 µM
T3 sequence (whole entry): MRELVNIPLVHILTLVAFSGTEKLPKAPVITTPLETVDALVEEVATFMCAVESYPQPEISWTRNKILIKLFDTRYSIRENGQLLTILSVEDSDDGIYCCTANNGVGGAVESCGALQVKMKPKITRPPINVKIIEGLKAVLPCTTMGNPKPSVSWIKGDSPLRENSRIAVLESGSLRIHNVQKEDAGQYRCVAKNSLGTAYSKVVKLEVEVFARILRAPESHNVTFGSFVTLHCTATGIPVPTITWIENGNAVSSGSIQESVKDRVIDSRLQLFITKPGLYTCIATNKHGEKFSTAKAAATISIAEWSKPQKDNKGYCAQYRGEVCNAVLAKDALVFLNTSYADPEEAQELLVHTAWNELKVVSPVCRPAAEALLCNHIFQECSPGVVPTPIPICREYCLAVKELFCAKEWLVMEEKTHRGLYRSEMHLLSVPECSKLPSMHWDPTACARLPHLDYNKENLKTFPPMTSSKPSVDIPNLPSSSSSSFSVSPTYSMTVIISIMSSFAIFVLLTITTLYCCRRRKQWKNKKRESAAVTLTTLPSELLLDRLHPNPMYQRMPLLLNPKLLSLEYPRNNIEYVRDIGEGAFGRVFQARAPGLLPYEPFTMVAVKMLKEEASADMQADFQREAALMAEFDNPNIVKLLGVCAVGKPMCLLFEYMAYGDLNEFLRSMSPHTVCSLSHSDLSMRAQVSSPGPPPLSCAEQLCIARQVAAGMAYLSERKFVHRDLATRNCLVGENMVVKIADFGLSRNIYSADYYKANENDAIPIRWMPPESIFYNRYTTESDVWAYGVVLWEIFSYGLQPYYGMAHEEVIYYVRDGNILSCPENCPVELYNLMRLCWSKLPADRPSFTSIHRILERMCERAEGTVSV

Chain of Cyclin-dependent kinase 18 (Homo sapiens) (Q07002 whole entry): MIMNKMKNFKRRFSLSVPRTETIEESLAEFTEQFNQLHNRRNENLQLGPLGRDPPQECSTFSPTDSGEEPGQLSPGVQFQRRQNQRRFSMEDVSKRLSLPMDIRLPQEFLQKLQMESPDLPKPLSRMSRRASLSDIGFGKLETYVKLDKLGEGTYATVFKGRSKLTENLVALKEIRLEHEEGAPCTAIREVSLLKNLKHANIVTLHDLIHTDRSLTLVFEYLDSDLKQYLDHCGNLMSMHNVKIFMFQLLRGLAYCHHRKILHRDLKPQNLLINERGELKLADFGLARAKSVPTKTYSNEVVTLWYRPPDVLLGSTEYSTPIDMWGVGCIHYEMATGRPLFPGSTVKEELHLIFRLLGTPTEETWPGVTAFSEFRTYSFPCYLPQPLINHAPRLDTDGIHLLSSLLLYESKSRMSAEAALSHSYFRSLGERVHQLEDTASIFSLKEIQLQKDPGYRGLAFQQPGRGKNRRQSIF

## O=C(NOC[C@H](O)CO)c1ccc(F)c(F)c1Nc1ccc(I)cc1F
[1]
  % of control: 100%

## COc1cc(N(C)c2ccnc3ccc(C(F)(F)F)cc23)cc(OC)c1OC
[2]
  % binding: 94%
[3]
  % binding: 88%

## CN(C(=O)c1cnn2cccnc12)c1cc2c(cc1N1CCOCC1)C(=O)N(C[C@@H](F)C(C)(C)O)C2
[4]
  dTM: 0.2 K

## CC[C@@H]1[C@H](F)C(=O)N[C@@H]1COc1nccc2cc(C(N)=O)c(OC)cc12 [ZIMLOVISERTIB]
[5]; at 0.01 µM
  % of inhibition: -7.2%
[5]; at 0.04 µM
  % of inhibition: -3.5%
[5]; at 0.2 µM
  % of inhibition: -8.9%
[5]; at 1 µM
  % of inhibition: 8%
[5]; at 5 µM
  % of inhibition: 8.9%

## CCC(=O)N1CCN(c2ccc(-n3c(=O)ccc4cnc5ccc(-c6cnc7ccccc7c6)cc5c43)cc2C(F)(F)F)CC1
[6]
  % of control: 50%

## C=CC(=O)Nc1cc(-n2c(=O)ccc3cnc4ccc(-c5ccc(NS(C)(=O)=O)cc5)cc4c32)ccc1C
[7]; at 1 µM
  % of control: 95%
[7]; at 10 µM
  % of control: 100%

## CNC(=O)Nc1ccc(-c2nc(N3CC4CCC(C3)O4)c3cnn(C4CCC5(CC4)OCCO5)c3n2)cc1
[8]
  % of control: 92%
